Measurements from ChEMBL document CHEMBL3885881, “DrugMatrix”.

Species on record: Rattus norvegicus
Experiment: DrugMatrix - Regimen: Daily Repeat
Format: toxicity, organism-based, Sprague-Dawley
Design: regimen Daily Repeat, gender Male, age 6-8 weeks
Conditions: in vivo, po, route oral GAVAGE, […]; for ABSOLUTE BASOPHIL / ABSOLUTE EOSINOPHIL / ABSOLUTE LYMPHOCYTE / ABSOLUTE MONOCYTE / ABSOLUTE SEGMENTED NEUTROPHIL / BASOPHIL / EOSINOPHIL / ERYTHROCYTE COUNT / HEMATOCRIT / HEMOGLOBIN / LEUKOCYTE COUNT / LYMPHOCYTE / MEAN CORPUSCULAR HEMOGLOBIN / MEAN CORPUSCULAR HEMOGLOBIN CONCENTRATION / MONOCYTE / NEUTROPHIL / NUCLEATED RED BLOOD CELLS / PLATELET COUNT: tissue Blood; for ALANINE AMINOTRANSFERASE / ALBUMIN / ALKALINE PHOSPHATASE / ASPARTATE AMINOTRANSFERASE / BLOOD UREA NITROGEN / CARBON DIOXIDE / CHLORIDE / CHOLESTEROL / CREATINE PHOSPHOKINASE / CREATININE / GLUCOSE / LACTATE DEHYDROGENASE / LIPASE / PHOSPHORUS / POTASSIUM / SODIUM / TOTAL BILIRUBIN / TOTAL PROTEIN / URIC ACID: tissue Plasma
[1] = 0 mg/kg, 72 h, dose level Control, time 3 day
[2] = 0 mg/kg, 120 h, dose level Control, time 5 day
[3] = 250 mg/kg, 72 h, dose level Low, time 3 day

SMILES: Cc1noc(NS(=O)(=O)c2ccc(N)cc2)c1C [SULFISOXAZOLE]
- ABSOLUTE BASOPHIL [1]: 0 CELLS/uL
- ABSOLUTE EOSINOPHIL [1]: 0 CELLS/uL
- ABSOLUTE LYMPHOCYTE [1]: 11091.17 CELLS/uL
- ABSOLUTE MONOCYTE [1]: 172.17 CELLS/uL
- ABSOLUTE SEGMENTED NEUTROPHIL [1]: 1186.67 CELLS/uL
- BASOPHIL [1]: 0%
- EOSINOPHIL [1]: 0%
- ERYTHROCYTE COUNT [1]: 5.87 x10E6/uL
- HEMATOCRIT [1]: 36.87%
- HEMOGLOBIN [1]: 14.03 G/DL
- LEUKOCYTE COUNT [1]: 12.45 x10E3/uL
- LYMPHOCYTE [1]: 88.67%
- MEAN CORPUSCULAR HEMOGLOBIN [1]: 23.93 pg
- MEAN CORPUSCULAR HEMOGLOBIN CONCENTRATION [1]: 38.1 G/DL
- MONOCYTE [1]: 1.5%
- NEUTROPHIL [1]: 9.83%
- NUCLEATED RED BLOOD CELLS [1]: 0 /100WBC
- PLATELET COUNT [1]: 1150.33 x10E3/uL
- ALANINE AMINOTRANSFERASE [1]: 67.17 u/L
- ALBUMIN [1]: 4.03 G/DL
- ALKALINE PHOSPHATASE [1]: 462.5 u/L
- ASPARTATE AMINOTRANSFERASE [1]: 88 u/L
- BLOOD UREA NITROGEN [1]: 13.17 mg/dL
- CARBON DIOXIDE [1]: 29.33 mmol/L
- CHLORIDE [1]: 101 MEQ/L
- CHOLESTEROL [1]: 69.17 mg/dL
- CREATINE PHOSPHOKINASE [1]: 292.5 u/L
- CREATININE [1]: 0.17 mg/dL
- GLUCOSE [1]: 167.5 mg/dL
- LACTATE DEHYDROGENASE [1]: 198.5 u/L
- LIPASE [1]: 10.67 u/L
- PHOSPHORUS [1]: 11.73 mg/dL
- POTASSIUM [1]: 5.91 MEQ/L
- SODIUM [1]: 143.3 MEQ/L
- TOTAL BILIRUBIN [1]: 0.18 mg/dL
- TOTAL PROTEIN [1]: 5.7 G/DL
- URIC ACID [1]: 1.3 mg/dL
- ABSOLUTE BASOPHIL [2]: 0 CELLS/uL
- ABSOLUTE EOSINOPHIL [2]: 64.33 CELLS/uL
- ABSOLUTE LYMPHOCYTE [2]: 12494.67 CELLS/uL
- ABSOLUTE MONOCYTE [2]: 117 CELLS/uL
- ABSOLUTE SEGMENTED NEUTROPHIL [2]: 1340.67 CELLS/uL
- BASOPHIL [2]: 0%
- EOSINOPHIL [2]: 0.33%
- ERYTHROCYTE COUNT [2]: 5.82 x10E6/uL
- HEMATOCRIT [2]: 36.97%
- HEMOGLOBIN [2]: 14.18 G/DL
- LEUKOCYTE COUNT [2]: 14.02 x10E3/uL
- LYMPHOCYTE [2]: 89%
- MEAN CORPUSCULAR HEMOGLOBIN [2]: 24.42 pg
- MEAN CORPUSCULAR HEMOGLOBIN CONCENTRATION [2]: 38.4 G/DL
- MONOCYTE [2]: 0.83%
- NEUTROPHIL [2]: 9.83%
- NUCLEATED RED BLOOD CELLS [2]: 0 /100WBC
- PLATELET COUNT [2]: 1097.83 x10E3/uL
- ALANINE AMINOTRANSFERASE [2]: 58.83 u/L
- ALBUMIN [2]: 3.92 G/DL
- ALKALINE PHOSPHATASE [2]: 414.17 u/L
- ASPARTATE AMINOTRANSFERASE [2]: 89.17 u/L
- BLOOD UREA NITROGEN [2]: 16.83 mg/dL
- CARBON DIOXIDE [2]: 29.17 mmol/L
- CHLORIDE [2]: 100.33 MEQ/L
- CHOLESTEROL [2]: 54.5 mg/dL
- CREATINE PHOSPHOKINASE [2]: 386.17 u/L
- CREATININE [2]: 0.23 mg/dL
- GLUCOSE [2]: 184.17 mg/dL
- LACTATE DEHYDROGENASE [2]: 229.17 u/L
- LIPASE [2]: 10.83 u/L
- PHOSPHORUS [2]: 10.88 mg/dL
- POTASSIUM [2]: 5.97 MEQ/L
- SODIUM [2]: 142.2 MEQ/L
- TOTAL BILIRUBIN [2]: 0.12 mg/dL
- TOTAL PROTEIN [2]: 5.63 G/DL
- URIC ACID [2]: 1.55 mg/dL
- ABSOLUTE BASOPHIL [3]: 0 CELLS/uL
- ABSOLUTE EOSINOPHIL [3]: 53.33 CELLS/uL
- ABSOLUTE LYMPHOCYTE [3]: 12619.33 CELLS/uL
- ABSOLUTE MONOCYTE [3]: 200.67 CELLS/uL
- ABSOLUTE SEGMENTED NEUTROPHIL [3]: 1193.33 CELLS/uL
- BASOPHIL [3]: 0%
- EOSINOPHIL [3]: 0.33%
- ERYTHROCYTE COUNT [3]: 5.71 x10E6/uL
- HEMATOCRIT [3]: 36.37%
- HEMOGLOBIN [3]: 14.1 G/DL
- LEUKOCYTE COUNT [3]: 14.07 x10E3/uL
- LYMPHOCYTE [3]: 89.67%
- MEAN CORPUSCULAR HEMOGLOBIN [3]: 24.7 pg
- MEAN CORPUSCULAR HEMOGLOBIN CONCENTRATION [3]: 38.77 G/DL
- MONOCYTE [3]: 1.33%
- NEUTROPHIL [3]: 8.67%
- NUCLEATED RED BLOOD CELLS [3]: 0 /100WBC
- PLATELET COUNT [3]: 1238.67 x10E3/uL
- ALANINE AMINOTRANSFERASE [3]: 58.33 u/L
- ALBUMIN [3]: 4.03 G/DL
- ALKALINE PHOSPHATASE [3]: 426.33 u/L
- ASPARTATE AMINOTRANSFERASE [3]: 80.67 u/L
- BLOOD UREA NITROGEN [3]: 15 mg/dL
- CARBON DIOXIDE [3]: 27.33 mmol/L
- CHLORIDE [3]: 102.67 MEQ/L
- CHOLESTEROL [3]: 67.67 mg/dL
- CREATINE PHOSPHOKINASE [3]: 283.67 u/L
- CREATININE [3]: 0.16 mg/dL
- GLUCOSE [3]: 171.67 mg/dL
- LACTATE DEHYDROGENASE [3]: 137.33 u/L
- LIPASE [3]: 9.67 u/L
- PHOSPHORUS [3]: 11.9 mg/dL
- POTASSIUM [3]: 6.14 MEQ/L
- SODIUM [3]: 145.13 MEQ/L
- TOTAL BILIRUBIN [3]: 0.13 mg/dL
- TOTAL PROTEIN [3]: 5.6 G/DL
